Results reported in patent publication US20250325505A1, “COMPOSITION COMPRISING CREATINE FOR USE IN THE TREATMENT OF BREATHING DIFFICULTIES” (Alzchem Trostberg GmbH, priority 2022, published 2025).
Read-outs that look alike come from different tables or passages of the source.

Tests used:
Post-COVID patients [1] = assay: Multidimensional fatigue inventory test (MFI-20), Example 2; format: in vivo, human; conditions: 4 g creatine monohydrate per day plus breathing exercise
Description: (§1) The patient-reported outcomes for COVID-19-related signs and symptoms (e.g., breathing difficulties, lung pain, body aches,) were evaluated with VAS scale Table 3). Fatigue, comprising the conditions of the group general fatigue, physical fatigue, metal fatigue, reduced activity, and reduced motivation, was evaluated with a multidimensional fatigue inventory test (MFI-20 test, Smets E. M. et al., J. Psychosom. Res. 1995, 39(3), 315).

Post-COVID patients [2] = assay: Multidimensional fatigue inventory test (MFI-20), Example 1; format: in vivo, human; conditions: 4 g creatine monohydrate per day
Description: as §1
Thus, the higher the score, the higher the respective symptom is experienced by the interviewed patient. As a consequence, the lower the value given, the better is the effect in mitigation of the respective symptom.

Post-COVID patients [3] = assay: Side effects, Example 2; format: in vivo, human; conditions: 4 g creatine monohydrate per day plus breathing exercise, 3-month
From the text: The changes in study outcomes during the trial are depicted in Table 5 and 6.

Post-COVID patients [4] = assay: Side effects, Example 1; format: in vivo, human; conditions: 4 g creatine monohydrate per day
Description: The number of participants who were randomly assigned, received intended treatment, and were analyzed for the primary outcome at this time was twelve in total, six in experimental group and six in control group.

Post-COVID patients [5] = assay: Time to exhaustion, incremental treadmill test, creatine plus breathing exercise; format: in vivo, human; conditions: for Time to exhaustion: treadmill
Description: (§2) The time to exhaustion of the patients was evaluated by an incremental test until exhaustion on a motorized treadmill. Speed and gradient of the treadmill are increased every third minute, starting at 2.7 km/h (1.7 miles per hour) at a 10% gradient and rising at stage 7 to 9.7 km/h (6 miles per hour) at 22% gradient (Will P. M. and Walter J. D., Am Heart. J., 1999 December, 138, 1033).

[6] = both, human, in vivo, 3 months
[7] = normal healthy population after creatine supplementation; cited from earlier work
Post-COVID patients [8] = assay: Time to exhaustion, incremental treadmill test, creatine vs placebo; format: in vivo, human; conditions: creatine vs placebo study; for Time to exhaustion: treadmill
Description: as §2

PCFS patients [9] = assay: Fatigue scores, Example 4; format: in vivo, human; parameters: key to General fatigue score / Physical fatigue score / Mental fatigue score / Reduced activity score / Reduced motivation score: MFI-20 multidimensional fatigue inventory subscale scores; conditions: for General fatigue score / Mental fatigue score / Physical fatigue score / Reduced activity score / Reduced motivation score: creatine 8 g per day or glucose 3 g per day
Description: The patient-reported outcomes for COVID-19-related signs and symptoms (e.g., breathing difficulties, lung pain, body aches,) were evaluated with VAS scale Table 3). Fatigue, comprising the conditions of the group general fatigue, physical fatigue, metal fatigue, reduced activity, and reduced motivation, was evaluated with a multidimensional fatigue inventory test (MFI-20 test, Smets E. M. et al., J. Psychosom. Res. 1995, 39(3), 315). […]

Post-COVID patients [10] = assay: Patient-reported symptoms, VAS scale, Example 2; format: in vivo, human; conditions: for Breathing difficulties (VAS scale) / Lung malaise (VAS scale) / Lung pain (VAS scale): 4 g creatine monohydrate per day plus breathing exercise
Description: as §1

Post-COVID patients [11] = assay: Patient-reported COVID-19-related symptoms, VAS scale, Example 1; format: in vivo, human; conditions: for Body Aches (VAS scale) / Breathing difficulties (VAS scale) / Lung pain (VAS scale): 4 g creatine monohydrate per day
Description: as §1

[12] = human, in vivo
PCFS patients [13] = assay: Patient-reported symptoms, VAS scale, Example 4; format: in vivo, human; conditions: for Body Aches (VAS scale) / Breathing difficulties (VAS scale) / Lung pain (VAS scale): creatine 8 g per day or glucose 3 g per day
Description: The patient-reported outcomes for COVID-19-related signs and symptoms (e.g., breathing difficulties, lung pain, body aches and post viral fatigue) were evaluated with VAS scale (Tables 10 and 11).
The Cohen's effect sizes (d) in the creatine group for all outcomes evaluated and reproduced in Table 12 and FIG. 2. The effects are classified as small (d=0.2), medium (d=0.5, dashed line), and large (d≥0.8). Missing values are due to a statistical limitation in calculating effect sizes when pre and/or post values equal zero. Abbreviations: GF, general fatigue; PF, physical fatigue; RM, reduced motivation; RA, reduced activity; MF, mental fatigue; BOA, body aches; BRD, breathing difficulties; LUP, lung pain; and MAL, malaise.

[14] = creatine group, 8 g per day, 8 weeks

CN(CC(=O)O)C(=N)N.O [Creatine, creatine monohydrate]
General fatigue score (Post-COVID patients [1]; 3 months): 12.3
Mental fatigue score (Post-COVID patients [1]; 3 months): 11.5
Physical fatigue score (Post-COVID patients [1]; 3 months): 12.2
Reduced activity score (Post-COVID patients [1]; 3 months): 12.8
Reduced motivation score (Post-COVID patients [1]; 3 months): 12.8
General fatigue score (Post-COVID patients [1]; Baseline): 11.5
Mental fatigue score (Post-COVID patients [1]; Baseline): 11.8
Physical fatigue score (Post-COVID patients [1]; Baseline): 12.3
Reduced activity score (Post-COVID patients [1]; Baseline): 12.5
Reduced motivation score (Post-COVID patients [1]; Baseline): 13.5
General fatigue score (Post-COVID patients [2]; 3 months): 11.3
Mental fatigue score (Post-COVID patients [2]; 3 months): 11.2
Physical fatigue score (Post-COVID patients [2]; 3 months): 12.7
Reduced activity score (Post-COVID patients [2]; 3 months): 12.0
Reduced motivation score (Post-COVID patients [2]; 3 months): 13.0
General fatigue score (Post-COVID patients [2]; 6 months): 12.7
Mental fatigue score (Post-COVID patients [2]; 6 months): 10.5
Physical fatigue score (Post-COVID patients [2]; 6 months): 13.2
Reduced activity score (Post-COVID patients [2]; 6 months): 12.5
Reduced motivation score (Post-COVID patients [2]; 6 months): 12.5
General fatigue score (Post-COVID patients [2]; Baseline): 12.0
Mental fatigue score (Post-COVID patients [2]; Baseline): 12.3
Physical fatigue score (Post-COVID patients [2]; Baseline): 13.5
Reduced activity score (Post-COVID patients [2]; Baseline): 11.5
Reduced motivation score (Post-COVID patients [2]; Baseline): 13.0
side effects / tolerability (Post-COVID patients [3]): well-tolerated
side effects (Post-COVID patients [4]): no major side effects
Cohen's effect size for time to exhaustion (Post-COVID patients [5]; creatine monohydrate plus breathing exercise): 0.36
stage reached in the treadmill test (Post-COVID patients [5]; creatine plus breathing exercise study): 6
Time to exhaustion (Post-COVID patients [5]; creatine plus breathing exercise study, 3-months): 921 s
Time to exhaustion (Post-COVID patients [5]; creatine plus breathing exercise study, Baseline): 867 s
mean time to exhaustion improved (Post-COVID patients [5]; experimental group, post-administration (3 months)): 54 s
Cohen's effect size (d) for creatine increment, vastus medialis muscle [6]: 0.77
increase of creatine in the brain [7]: ≤ 5%
stage achieved in the treadmill test (Post-COVID patients [8]): 6
time to exhaustion increased (Post-COVID patients [8]; matches 6-months vs baseline of Table 7): 7.3%
Time to exhaustion (Post-COVID patients [8]; 3-months): 922 s
Time to exhaustion (Post-COVID patients [8]; 6-months): 959 s
Time to exhaustion (Post-COVID patients [8]; Baseline): 894 s
General fatigue score (PCFS patients [9]; 8 weeks): 12.0
Mental fatigue score (PCFS patients [9]; 8 weeks): 12.2
Physical fatigue score (PCFS patients [9]; 8 weeks): 11.4
Reduced activity score (PCFS patients [9]; 8 weeks): 12.0
Reduced motivation score (PCFS patients [9]; 8 weeks): 10.3
General fatigue score (PCFS patients [9]; Baseline): 12.6
Mental fatigue score (PCFS patients [9]; Baseline): 13.4
Physical fatigue score (PCFS patients [9]; Baseline): 12.2
Reduced activity score (PCFS patients [9]; Baseline): 13.6
Reduced motivation score (PCFS patients [9]; Baseline): 11.6
Cohen's effect (d), General Fatigue (PCFS patients [9]; [14]): 0.44
Cohen's effect (d), Physical Fatigue (PF) (PCFS patients [9]; [14]): 0.83
Cohen's effect size for lung malaise (Post-COVID patients [10]; 3-month follow up): 2.97
Breathing difficulties (VAS scale) (Post-COVID patients [10]; 3 months): 0.0
Lung malaise (VAS scale) (Post-COVID patients [10]; 3 months): 1.0
Lung pain (VAS scale) (Post-COVID patients [10]; 3 months): 0.0
Breathing difficulties (VAS scale) (Post-COVID patients [10]; Baseline): 1.5
Lung malaise (VAS scale) (Post-COVID patients [10]; Baseline): 6.3
Lung pain (VAS scale) (Post-COVID patients [10]; Baseline): 0.5
lung malaise reduced (Post-COVID patients [10]; creatine plus breathing exercise, 3-month follow up): 84%
Body Aches (VAS scale) (Post-COVID patients [11]; 3 months): 1.2
Breathing difficulties (VAS scale) (Post-COVID patients [11]; 3 months): 0.5
Lung pain (VAS scale) (Post-COVID patients [11]; 3 months): 0.5
Body Aches (VAS scale) (Post-COVID patients [11]; 6-months): 0.0
Breathing difficulties (VAS scale) (Post-COVID patients [11]; 6-months): 0.0
Lung pain (VAS scale) (Post-COVID patients [11]; 6-months): 0.0
Body Aches (VAS scale) (Post-COVID patients [11]; Baseline): 4.5
Breathing difficulties (VAS scale) (Post-COVID patients [11]; Baseline): 2.3
Lung pain (VAS scale) (Post-COVID patients [11]; Baseline): 2.3
Body aches reduced (Post-COVID patients [11]; after 3 months): 73.3%
Lung pain (Post-COVID patients [11]; after 3 months): reduced significantly
breathing difficulties (dyspnea) reduced (Post-COVID patients [11]; after 3 months): 78%
Cohen's effect size (d), body aches (Post-COVID patients [11]; at 3-month): 1.77
Cohen's effect size (d), breathing difficulties (Post-COVID patients [11]; at 3-month): 0.89
Cohen's effect size (d), body aches (Post-COVID patients [11]; at 6-month): 3.03
Cohen's effect size (d), breathing difficulties (Post-COVID patients [11]; at 6-month): 1.25
Cohen's effect size (d), lung pain (Post-COVID patients [11]; at 6-month): 0.99
Total creatine, Left paracentral grey matter [12]: 6.7 ± 0.6 mM
Total creatine, Right paracentral grey matter [12]: 6.8 ± 0.4 mM
Cohen's effect size (d), increased brain creatine level in left parietal white matter ([12]; 3 months): 0.92
Cohen's effect size (d), increased brain creatine level in parietal white matter ([12]; 3 months): 1.99
Cohen's effect size (d), increased brain creatine level in right frontal white matter ([12]; 3 months): 1.25
Cohen's effect size (d), increased brain creatine level in right paracentral grey matter ([12]; 3 months): 0.88
Cohen's effect size (d), increased brain creatine level in right parietal messial grey matter ([12]; 3 months): 1.17
Cohen's effect size (d), increased brain creatine level in thalamus ([12]; 3 months): 0.82
Total creatine, Left paracentral grey matter ([12]; 3 months): 7.3 ± 0.9 mM
Total creatine, Right paracentral grey matter ([12]; 3 months): 7.2 ± 0.5 mM
Cohen's effect size (d), increased brain creatine level in left parietal messial grey matter ([12]; 6 months): 0.84
Cohen's effect size (d), increased brain creatine level in left parietal white matter ([12]; 6 months): 1.17
Cohen's effect size (d), increased brain creatine level in parietal white matter ([12]; 6 months): 1.74
Cohen's effect size (d), increased brain creatine level in right frontal white matter ([12]; 6 months): 1.32
Cohen's effect size (d), increased brain creatine level in right parietal messial grey matter ([12]; 6 months): 1.06
Total creatine, Left paracentral grey matter ([12]; 6 months): 7.1 ± 0.7 mM
Total creatine, Right paracentral grey matter ([12]; 6 months): 7.0 ± 0.7 mM
Cohen's effect size (d) for reducing body aches (PCFS patients [13]; 8-week follow-up): > 0.80
Cohen's effect size (d) for reducing breathing difficulties (PCFS patients [13]; 8-week follow-up): > 0.80
Cohen's effect size (d) for reducing lung malaise (PCFS patients [13]; 8-week follow-up): > 0.80
Body aches reduced (PCFS patients [13]; after 8 weeks): 71%
Lung pain reduced (PCFS patients [13]; after 8 weeks): 67%
breathing difficulties (dyspnea) reduced (PCFS patients [13]; after 8 weeks): 85%
Body Aches (VAS scale) (PCFS patients [13]; 8 weeks): 0.8
Breathing difficulties (VAS scale) (PCFS patients [13]; 8 weeks): 0.4
Lung pain (VAS scale) (PCFS patients [13]; 8 weeks): 0.6
Body Aches (VAS scale) (PCFS patients [13]; Baseline): 2.8
Breathing difficulties (VAS scale) (PCFS patients [13]; Baseline): 2.6
Lung pain (VAS scale) (PCFS patients [13]; Baseline): 1.8
Cohen's effect (d), Body aches (BOA) (PCFS patients [13]; [14]): 1.11
Cohen's effect (d), Lung pain (LUP) (PCFS patients [13]; [14]): 0.64
